# pEC50, pIC50: −log10 of the molar value. Like-named read-outs stand apart in the source and are kept apart here.
# Legend:
# [1] = Microsomes stability, mouse (m); assay type: in vitro ADME; conditions: first value of (m, h)
# [2] = system: pAMPK in A427; assay: A427 pAMPK MOA assay; assay type: cell-based; conditions: Homo sapiens, A-427
# [3] = Microsomes stability, human (h); assay type: in vitro ADME; conditions: second value of (m, h)
# [4] = PPB, human (h); assay type: in vitro ADME; conditions: plasma, second value of (m, h)
# [5] = system: CYP450; assay: CYP450 inhibition; assay type: in vitro ADME; conditions: all isoforms except 2C9
# [6] = system: CEREP; assay: CEREP panel; conditions: @ 10 uM
# [7] = PPB, mouse (m); assay type: in vitro ADME; conditions: plasma, first value of (m, h)
# [8] = PK; conditions: in vivo; read-out: PK % F
# [9] = biological target: 2C9 (Homo sapiens, UniProt P11712); assay: CYP450 2C9 inhibition; assay type: in vitro ADME
# Sequence of 2C9 (P11712 whole entry): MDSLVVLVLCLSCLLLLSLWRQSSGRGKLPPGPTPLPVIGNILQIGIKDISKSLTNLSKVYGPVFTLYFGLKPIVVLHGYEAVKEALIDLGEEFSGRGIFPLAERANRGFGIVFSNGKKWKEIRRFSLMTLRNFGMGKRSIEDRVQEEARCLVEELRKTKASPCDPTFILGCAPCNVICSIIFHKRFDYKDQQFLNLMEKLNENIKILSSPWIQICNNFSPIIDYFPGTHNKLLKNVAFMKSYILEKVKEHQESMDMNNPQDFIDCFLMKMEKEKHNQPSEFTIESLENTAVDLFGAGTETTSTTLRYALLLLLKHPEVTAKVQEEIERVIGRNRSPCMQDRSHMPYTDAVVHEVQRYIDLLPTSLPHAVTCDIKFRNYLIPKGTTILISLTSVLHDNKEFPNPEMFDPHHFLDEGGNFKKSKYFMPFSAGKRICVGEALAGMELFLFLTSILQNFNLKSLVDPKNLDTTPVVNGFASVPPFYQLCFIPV
# [10] = biological target: CaMKK1 (Homo sapiens, UniProt Q8N5S9); assay: CaMKK1 IC50; assay type: binding
# Sequence of CaMKK1 (Q8N5S9 whole entry, species assumed): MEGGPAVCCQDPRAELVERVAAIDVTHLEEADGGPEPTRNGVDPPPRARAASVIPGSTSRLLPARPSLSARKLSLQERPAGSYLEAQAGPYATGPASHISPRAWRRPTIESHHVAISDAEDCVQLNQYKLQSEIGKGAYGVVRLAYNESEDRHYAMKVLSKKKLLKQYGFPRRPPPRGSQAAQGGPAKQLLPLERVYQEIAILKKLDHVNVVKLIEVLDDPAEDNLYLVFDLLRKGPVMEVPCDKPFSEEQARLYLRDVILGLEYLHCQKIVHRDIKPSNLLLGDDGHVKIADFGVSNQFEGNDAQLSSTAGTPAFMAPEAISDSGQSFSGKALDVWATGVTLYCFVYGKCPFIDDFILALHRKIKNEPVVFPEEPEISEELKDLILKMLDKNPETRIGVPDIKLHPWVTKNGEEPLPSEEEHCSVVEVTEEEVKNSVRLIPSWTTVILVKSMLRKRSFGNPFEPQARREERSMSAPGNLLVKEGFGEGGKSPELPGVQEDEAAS
# [11] = system: KSP (72) kinases; set-up: dose or concentration left out as unconfirmed; conditions: of 72 kinases
# [12] = biological target: CaMKK2 (Homo sapiens, UniProt Q96RR4); assay: CaMKK2 binding assay (LanthaScreen TR-FRET)
# Sequence of CaMKK2 (Q96RR4 whole entry): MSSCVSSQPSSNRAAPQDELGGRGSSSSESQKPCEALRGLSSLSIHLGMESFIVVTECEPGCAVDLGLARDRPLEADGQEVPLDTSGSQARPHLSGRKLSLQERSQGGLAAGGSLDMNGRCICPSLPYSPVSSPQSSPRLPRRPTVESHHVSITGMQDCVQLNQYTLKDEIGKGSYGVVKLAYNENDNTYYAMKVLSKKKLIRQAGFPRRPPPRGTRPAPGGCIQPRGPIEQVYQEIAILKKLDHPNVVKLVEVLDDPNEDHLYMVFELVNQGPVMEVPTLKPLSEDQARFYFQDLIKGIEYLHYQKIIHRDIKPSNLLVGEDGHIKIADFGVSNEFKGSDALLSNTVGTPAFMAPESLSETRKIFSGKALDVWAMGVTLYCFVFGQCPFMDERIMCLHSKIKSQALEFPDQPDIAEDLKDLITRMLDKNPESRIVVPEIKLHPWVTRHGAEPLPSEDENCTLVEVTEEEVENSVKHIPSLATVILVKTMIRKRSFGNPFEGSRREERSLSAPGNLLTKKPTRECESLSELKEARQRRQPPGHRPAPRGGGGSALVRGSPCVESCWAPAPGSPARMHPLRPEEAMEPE
# Protocol: The ability of test compounds to bind and inhibit the activity of CaMKK2 were determined using a binding assay using LanthaScreent (Thermofisher) detection reagents in a 384-well plate format using the following assay buffer: 50 mM HEPES (pH7.5), 10 mM MgCl2, 1 mM EGTA, and 0.01% Brij-35.
# A 10-point serial dilution of inhibitor compound in 0.5% DMSO was added to each well of the plate. The final assay volume in well was 15 uL. […] A ratio was calculated from the 2 readouts and fitted to a 4-parameter fit to determine the binding IC50.
# [13] = system: phosphorylation of CaMKK2 substrate AMPK at Thr172 in A549 lung carcinoma cells; assay: Cell-based phosphorylation assay (Phospho-AMPK Thr172 HTRF); conditions: Homo sapiens; for pEC50: A549, read-out: A549 pAMPK MOA EC50; for pIC50: A549 cells, compounds 4 hours, 3 uM Calcium Ionophore 30 minutes, read-out: Cellular IC50 Phosphorylation
# Protocol: Cellular CaMKK2 inhibition by compounds was measured by monitoring the phosphorylation of CaMKK2 substrate AMPK at Thr172 in A549 lung carcinoma cells (ATCC) using CISBIO Phospho-AMPK (Thr172) HTRF kit. A549 cells were plated in 96 well plates at 8000 cells/well in DMEM+10% FBS+1× pen/step+1×NEAA and incubated at 37° C. overnight in a CO2 incubator. Cells were then treated with compounds for 4 hours. After cells were stimulated by 3 uM Calcium Ionophore (Sigma) at 37° C. for 30 minutes, cells were washed and then lysed with cell lysis buffer (CisBio) for 30 minutes. […] Plates were incubated overnight and then read using HTRF mode by BMG PHERAstarFS.
# [14] = system: A549 lung carcinoma cells; assay: Cell proliferation assay (CellTiter 96 Aqueous); assay type: cell-based; conditions: Homo sapiens, compounds 48 hours, read-out: Cellular IC50 Proliferation
# Protocol: Proliferation was measured using CellTiter 96 Aqueous Non-Radioactive Cell Proliferation Assay Kit (Promega), which determines the number of viable cells in culture based on quantitation of dehydrogenase enzymes, as an indicator of metabolically active cells. A549 lung carcinoma cells were seeded at 2,000 cells/well in a 96-well tissue culture treated plate in DMEM+10% FBS+1× pen/step+1×NEAA and incubated at 37° C. overnight in a CO2 incubator. Cells were treated with compounds for 48 hours. Then viability was measured using CellTiter 96 Aqueous Non-Radioactive Cell Proliferation Assay Kit (Promega). Detection was performed using Biotek Cytation 5 Cell Imaging Multi Mode plate reader.
compound,measurement,setting,value
"CCOc1ccc2c(-c3ccc(C(=O)O)c(C4CCCC4)c3)ncnc2c1 [Example 5.1, 2-cyclopentyl-4-(7-ethoxyquinazolin-4-yl)benzoic acid]",Microsomes (m) Stability60,[1],"Stability60: 96, %"
same,Microsomes (m) UGT,[1],79%
same,pEC50,[2],7.13
same,Microsomes (h) Stability60,[3],100%
same,Microsomes (h) UGT,[3],89%
same,fraction unbound,[4],0.01
same,CYP450,[5],> 30 µM
same,CEREP,[6],no inhibition >50%
same,fraction unbound,[7],0.015
same,bioavailability,[8],80%
same,CYP450 2C9,[9],2C9 (4 mM)
"CCOc1cc(F)c2c(-c3ccc(C(=O)O)c(C4CCCC4)c3)ncnc2c1 [Example 5.2, 2-cyclopentyl-4-(7-ethoxy-5-fluoroquinazolin-4-yl)benzoic acid]",pIC50,[10],7.92
"CCOc1ccc2c(-c3ccc(C(=O)O)c(C4CCCC4)c3)ccnc2c1 [Example 5.3, 2-cyclopentyl-4-(7-ethoxyquinolin-4-yl)benzoic acid]",pIC50,[10],8.77
same,Microsomes (m) CYP/UGT60,[1],"CYP/UGT60: 66, %"
same,Kinase Selectivity KSP (72),[11],6 of 72 @
same,pIC50,[12]; Table 8,8.82
same,pEC50,[2],7.52
same,Microsomes (h) CYP/UGT60,[3],67%
same,fraction unbound,[4],< 0.01
same,fraction unbound,[7],< 0.01
same,pEC50,[13],7.22
same,bioavailability,[8],58%
"CCOc1ccc2c(-c3ccc(C(=O)O)c(C(C)C)c3)c(F)cnc2c1 [Example 5.4, 4-(7-ethoxy-3-fluoroquinolin-4-yl)-2-isopropylbenzoic acid]",pIC50,[10],8.77
same,Kinase Selectivity KSP (72),[11],6 of 72 @
same,pIC50,[12]; Table 8,8.96
same,pEC50,[13],7.10
"CCNc1cc(-n2ccc3ncc(-c4ccc5nn(C)cc5c4)nc32)ccc1C(=O)O [Example 13, 2-(Ethylamino)-4-(3-(2-methyl-2H-indazol-5-yl)-5H-pyrrolo[2,3-b]pyrazin-5-yl)benzoic Acid]",pIC50,[12],> 7.00
same,pIC50,[14],< 5.00
same,pIC50,[13],6.00 to 7.00
"O=C(O)c1ccc(-n2ccc3ncc(C4CC4)nc32)cc1C1CCCC1 [Example 18, 2-Cyclopentyl-4-(3-cyclopropyl-5H-pyrrolo[2,3-b]pyrazin-5-yl)benzoic Acid]",pIC50,[12],> 7.00
same,pIC50,[14],< 5.00
same,pIC50,[13],6.00 to 7.00
"N#CNC(=O)c1ccc(-n2ccc3ncc(C4CC4)nc32)cc1C1CCCC1 [Example 19, N-Cyano-2-cyclopentyl-4-(3-cyclopropyl-5H-pyrrolo[2,3-b]pyrazin-5-yl)benzamide]",pIC50,[12],> 7.00
same,pIC50,[14],< 5.00
same,pIC50,[13],5.00 to 6.00
"c1cc(-c2nn[nH]n2)c(C2CCCC2)cc1-n1ccc2ncc(C3CC3)nc21 [Example 20, 5-(3-cyclopentyl-4-(2H-tetrazol-5-yl)phenyl)-3-cyclopropyl-5H-pyrrolo[2,3-b]pyrazine]",pIC50,[12],> 7.00
same,pIC50,[14],< 5.00
same,pIC50,[13],< 5.00
"Cc1cc(C)cc(-c2cnc3ccn(-c4ccc(C(=O)O)c(OC5CNC5)c4)c3n2)c1 [Example 24, 2-(azetidin-3-yloxy)-4-(3-(3,5-dimethylphenyl)-5H-pyrrolo[2,3-b]pyrazin-5-yl)benzoic Acid]",pIC50,[12],6.00 to 7.00
same,pIC50,[14],< 5.00
same,pIC50,[13],> 7.00

# Source: patent publication US20240246969A1, “HETEROCYCLIC DERIVATIVES AS CAMKK2 INHIBITORS” (Bristol-Myers Squibb Company, priority 2021, published 2024)
